The values below come from US11433053B2, “LSD1 inhibitor and preparation method and application thereof” (CSPC ZHONGQI PHARMACEUTICAL TECHNOLOGY (SHIJIAZHUANG) CO., …, priority 2017, dated 2022).

In data set [1] the test system is human small cell lung cancer NCI-H1417 cells subcutaneous xenograft tumor. Briefly: In vivo pharmacodynamic study, NCI-H1417 subcutaneous xenograft tumor CB-17 SCID mouse model. Details: species or system CB-17 SCID mice. The protocol:
The purpose of this experiment was to investigate the efficacy of some of the compounds of the present invention in the in vivo xenograft tumor of human small cell lung cancer NCI-H1417 cells in a CB-17 SCID mouse model.
Week age and weight: 6-8 weeks old, weight 18-23 g
Human small cell lung cancer NCI-H1417 cells were cultured in vitro in a single layer cultured in RPMI-1640 medium (Sigma-aldrich, R0883), supplemented with 10% fetal bovine serum and cultured at 37° C. 5% CO2. When the cell saturation is 80%-90%. The cells are harvested, counted, and inoculated.
0.2 mL of 10×10^6 (NCI-H1417 cells were subcutaneously inoculated into the right back of each mouse (PBS:Matrigel=1:1). After 21 days of tumor inoculation, group administration was started when the average volume reached 107 mm^3.
The experimental solvent was the 10% hydroxypropyl-β-cyclodextrin solution. The preparation method was as follows: 100 g of hydroxypropyl-β-cyclodextrin was weighed into a 1000 mL jar, 800 mL of ultrapure water was added, stirred overnight until completely dissolved, and then made up to 1000 mL. The test substance was dissolved in a solvent, and was prepared into a uniform solution of a certain concentration and stored at 4° C.
The experimental indicator is to investigate whether tumor growth is inhibited, delayed or cured. Tumor diameters were measured twice a week using vernier calipers. The tumor volume is calculated as: V=0.5a×b^2, and a and b represent the long and short diameters of the tumor, respectively.
The antitumor effect of the compound was evaluated by TG (%). TGI (%), reflecting the tumor growth inhibition rate. TGI (%) calculation: TGI (%)=[1−(the average tumor volume at the end of a treatment group−the average tumor volume at the beginning of the treatment group)/(the average tumor volume at the end of the treatment of the solvent control group−The average tumor volume at the start of treatment in the solvent control group) was ×100%. Solvent control: Vehicle (10% hydroxypropyl-β-cyclodextrin solution).

A further data set deals with human LSD1 (Homo sapiens (Human), UniProt O60341). Briefly: Evaluation of enzyme activity: LSD1 fluorescence coupling enzyme assay (HRP/Amplex Red). Type of data set: biochemical. Conditions: human LSD1, histone H3(1-21)K4me2 peptide 10 μM, 30 min pre-incubation. The method, boiled down:
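Human LSD1 preincubated 30 min with compound, then reacted with H3(1-21)K4me2 peptide (10 μM). FAD-dependent H2O2 detected via HRP/Amplex Red fluorescence (Ex/Em 535/590). Ten-dose, 3-fold dilutions in duplicate from 10 μM gave IC50s, binned into activity classes.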

For the next data set, the system named is H1417 cells. Briefly: Cell proliferation inhibitory activity on H1417 cells (CellTiter-Glo, 10 days). Type of data set: cell-based, human. The conditions noted are these: for IC50: 10 days incubation; for Emax: NCI-H1417, H1417 cells, read-out: Maximum inhibition percentage (%). In short, it runs like this: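 H1417 cells in RPMI 1640 with fetal bovine serum were treated with 10-point 3-fold compound dilutions for 10 days. Viability was read by CellTiter-Glo luminescence. IC50 came from a four-parameter fit of percent inhibition, and maximal inhibition was also categorized.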

A further data set concerns the target hERG potassium channel (Homo sapiens (Human), UniProt Q12809). Briefly: Assay on inhibiting hERG potassium channel (automatic patch clamp, CHO-hERG cells). The class given is cell-based. The conditions noted are these: Qpatch, max test concentration 40 μM. Here is the method:
Experimental purpose: Using automatic patch clamp method to detect the effect of the sample to be tested on hERG potassium channel.
4.1.1 CHO-hERG cells were cultured in 175 cm^2 flasks. When the cell density was increased to 60-80%, the culture solution was removed and the resultant was washed with 7 mL PBS (Phosphate Buffered Saline phosphate buffer), then 3 mL of digestive juice was added to digest.
4.1.2 After the digestion finished, 7 mL culture solution was added to neutralize. Then centrifuge, aspirate the supernatant, and then resuspend by adding 5 mL culture solution to ensure a cell density of 2-5×10^6/mL.
Single cell high impedance sealing and whole cell pattern formation were all done automatically by the Qpatch instrument. After the whole-cell recording mode was obtained, the cells were clamped at −80 mV. 50-Millisecond−50 mV preamplifier was applied prior to a 5 second+40 mV depolarization stimulus. Then the voltage was repolarized to −50 mV for 5 seconds and back to −80 mV. This voltage stimulation was applied every 15 seconds, and the extracellular fluid was recorded over 5 minutes after 2 minutes' record, and then the administration process was started. The compound concentration was started from the lowest test concentration, and each test concentration was given for 2.5 minutes. Test at least 3 cells (n≥3) for each concentration.
4.4.1 Dilute 20 mM mother liquor of the compound with extracellular fluid 5 μL of 20 mM mother liquor of the compound was added to 2495 μL extracellular fluid, and the mixture was 500-fold diluted to 40 μM. Then 0.2% DMSO in extracellular fluid was 3-fold diluted sequentially to obtain the final concentration to be tested.
4.4.2 The max test concentration was 40 μM, 6 concentrations were 40, 13.33, 4.44, 1.48, 0.49, and 0.16 μM respectively.
Experimental data was analyzed by XLFit software.
Background: hERG is a cardiac potassium channel; its block is linked to QT prolongation.

Data set [2] is described as follows: Pharmacokinetic evaluation in C57BL/6 mice after intravenous and oral administration. The conditions noted are these: male, mouse, plasma; for Cmax / clearance / half-life / Vd: IV 1 mg/kg; for Cmax: oral 2 mg/kg, route of Cmax not stated, read-out: max concentration Cmax; for clearance: read-out: clearance CL; for half-life: read-out: half-life T1/2 (IV, h) (converted); for Vd: read-out: volumes of distribution Vdss; for bioavailability: PO 2 mg/kg vs IV 1 mg/kg, read-out: bioavailability F (%); for AUC(0-t): PO 2 mg/kg, read-out: the area under the plasma concentration-time curve AUC0-last PO. Type of data set: in vivo. The protocol:
Experimental purposes: To test the pharmacokinetics of compounds in C57BL/6 mice
C57BL/6 mice (male, 7-9 weeks old, Shanghai Slack)
Test the pharmacokinetics characteristics of rodents after intravenous and oral administration in accordance with standard protocols, and the candidate compound was formulated into a clear solution in the experiment. The mice were administered by intravenous injection and orally once. The intravenous and oral vehicle is a 10% aqueous solution of hydroxypropyl β-cyclodextrin or a physiological saline solution. Six male C57BL/6 mice were employed in this assay, three of them were administered intravenously at a dose of 1 mg/kg, plasma samples were collected at 0 h (before administration) and 0.0833, 0.25, 0.5, 1, 2, 4, 7, 24 h after administration. Another three mice were administered by oral gavage at a dose of 2 mg/kg, plasma samples were collected at 0 h (before administration) and 0.5, 1, 2, 3, 4, 6, 24 h after administration. Collect whole blood samples within 24 hours, centrifuge at 3000 g for 15 minutes, separate the supernatant to obtain a plasma sample, 4 times volume of the internal standard acetonitrile solution was added to precipitate the protein. Centrifuge the supernatant and add an equal volume of water and centrifuge to take the supernatant. LC-MS/MS was used to quantitatively analyze plasma concentrations and calculate pharmacokinetic parameters such as max concentration (Cmax), clearance (CL), half-life (T1/2), volumes of distribution (Vdss), the area under the plasma concentration-time curve (AUC0-last), bioavailability (F), etc.

Where [3] appears, read: 1 mg/kg, ip, BIW, day 28 after administration.
Where [4] appears, read: 1 mg/kg, ip, BIW, day 34 after administration.
The mark [5] stands for this setting: Homo sapiens, NCI-H1417, 240 h, H1417 cells.
The mark [6] stands for this setting: Homo sapiens, highest percentage inhibition of cell viability.
The mark [7] stands for this setting: 5 mg/kg, PO, QD, day 34 after administration.
Where [8] appears, read: 1.5 mg/kg, PO, QD, day 27 after administration.
Where [9] appears, read: 2.5 mg/kg, PO, BID, day 34 after administration.

Chain of hERG potassium channel (Q12809 whole entry): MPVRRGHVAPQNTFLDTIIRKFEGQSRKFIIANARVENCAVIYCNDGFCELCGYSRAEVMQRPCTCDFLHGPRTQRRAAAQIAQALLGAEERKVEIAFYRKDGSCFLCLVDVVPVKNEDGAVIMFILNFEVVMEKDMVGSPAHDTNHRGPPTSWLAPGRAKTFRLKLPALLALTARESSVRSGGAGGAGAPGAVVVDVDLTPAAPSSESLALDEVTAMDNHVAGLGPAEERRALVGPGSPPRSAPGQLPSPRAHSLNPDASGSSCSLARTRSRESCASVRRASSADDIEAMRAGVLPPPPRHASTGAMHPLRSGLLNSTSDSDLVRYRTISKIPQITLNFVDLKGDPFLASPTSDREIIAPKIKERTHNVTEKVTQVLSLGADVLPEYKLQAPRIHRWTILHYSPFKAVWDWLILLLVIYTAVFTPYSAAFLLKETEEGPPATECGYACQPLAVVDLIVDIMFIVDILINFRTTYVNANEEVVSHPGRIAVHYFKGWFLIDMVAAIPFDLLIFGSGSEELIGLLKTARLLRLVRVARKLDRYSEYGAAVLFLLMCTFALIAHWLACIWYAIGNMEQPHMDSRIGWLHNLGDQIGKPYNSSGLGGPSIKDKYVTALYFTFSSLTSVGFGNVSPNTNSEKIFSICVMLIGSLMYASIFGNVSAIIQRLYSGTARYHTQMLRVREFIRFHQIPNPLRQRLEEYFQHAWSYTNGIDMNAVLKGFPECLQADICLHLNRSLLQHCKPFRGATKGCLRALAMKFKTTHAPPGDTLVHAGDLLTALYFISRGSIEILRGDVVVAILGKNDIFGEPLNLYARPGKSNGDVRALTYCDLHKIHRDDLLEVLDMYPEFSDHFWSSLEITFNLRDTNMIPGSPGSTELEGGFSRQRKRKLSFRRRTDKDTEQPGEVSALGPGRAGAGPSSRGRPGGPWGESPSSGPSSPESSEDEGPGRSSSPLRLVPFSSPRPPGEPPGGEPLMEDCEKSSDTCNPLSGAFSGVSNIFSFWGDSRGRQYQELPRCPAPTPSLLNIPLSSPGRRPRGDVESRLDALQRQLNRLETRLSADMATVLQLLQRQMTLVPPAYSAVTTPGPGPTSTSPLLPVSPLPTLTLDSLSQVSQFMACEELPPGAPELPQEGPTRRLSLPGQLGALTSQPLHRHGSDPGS

In the case of `N.N.[Cl][Pt][Cl]` [Cisplatin], in data set [1] (setting [3]), the “TGI (%)” value is given as 90% and the “Tumor volume (mm^3) (Day 28)” value stood at 150 ± 9 mm^3. In data set [1] (setting [4]), the “TGI (%)” value was 61.2% and the “Tumor volume (mm^3) (Day 34)” value amounted to 328 ± 37 mm^3.
As a reminder, the IC50 is the midpoint of a concentration-inhibition curve. Read a high IC50 as weaker potency. In the case of `N[C@H]1CC[C@H](c2nc(C3(CN[C@H]4CC4c4ccccc4)CC3)no2)CC1` (stereo partly shown) [Example 142], the IC50 against human LSD1 was ≤ 50 nM. Besides, the IC50 with H1417 cells (setting [5]) fell in the range of 500 to 1000 nM. In the data set with H1417 cells (setting [6]), the Emax was 70 to 90%. Further, in data set [1] (setting [7]), the “TGI (%)” value is given as 94.9% and the “Tumor volume (mm^3) (Day 34)” value is listed as 136 ± 21 mm^3.
`N[C@H]1CC[C@H](c2nc(C3(CN[C@H]4C[C@@H]4c4ccccc4)CC3)no2)CC1` [Example 143]: the IC50 was 50 to 100 nM at human LSD1 and 500 to 1000 nM with H1417 cells (H1417 cells). Besides, the “Maximum inhibition percentage (%)” value in the data set on H1417 cells (H1417 cells, highest percentage inhibition of cell viability) is on record as “C (70%>C≥50%)”. The “TGI (%)” value in data set [1] (setting [7]) turned out to be 93.3%. The “Tumor volume (mm^3) (Day 34)” value in data set [1] (setting [7]) was determined as 145 ± 29 mm^3.
Take `N[C@H]1C[C@H](c2nc(C3(CN[C@@H]4C[C@H]4c4ccccc4)CC3)no2)C1` [Example 146]: the 50% inhibitory concentration (IC50) against human LSD1 was ≤ 50 nM; against hERG potassium channel, > 40000 nM; with H1417 cells (setting [5]), 500 to 1000 nM. In the data set on H1417 cells (setting [6]), the Emax was in the range of 90 to 100%.
For the compound `NC1CC2(C1)CC(c1nc(C3(CN[C@@H]4C[C@H]4c4ccccc4)CC3)no1)C2` (stereo partly shown) [Example 151], the IC50 against human LSD1 was ≤ 50 nM. In addition, the IC50 in the data set with H1417 cells (setting [5]) fell in the range of 100 to 500 nM. Also, the Emax in the data set with H1417 cells (setting [6]) was 90 to 100%. Besides, in data set [1] (setting [8]), the “TGI (%)” value is on record as 66.3% and the “Tumor volume (mm^3) (Day 27)” value stood at 250 ± 50 mm^3.
In the case of `NC12CCC(c3nc(C4(CN[C@@H]5C[C@H]5c5ccccc5)CC4)no3)(CC1)CC2` [Example 155], the IC50 on human LSD1 was ≤ 50 nM; against hERG potassium channel, > 40000 nM; in the data set with H1417 cells (setting [5]), 100 to 500 nM. The Emax with H1417 cells (setting [6]) lay within 90 to 100%. Moreover, the “TGI (%)” value in data set [1] (setting [8]) was found to be 78.7%. Also, in data set [1] (setting [8]), the “Tumor volume (mm^3) (Day 27)” value was found to be 200 ± 15 mm^3.
Usually bioavailability stands for dose-corrected exposure relative to a reference, in per cent. For `O=C(O)[C@H]1CC[C@H](c2nc(C3(CN[C@@H]4C[C@H]4c4ccccc4)CC3)no2)CC1` [Example 167], at human LSD1, the concentration for half-maximal inhibition (IC50) lay in the range of 100 to 500 nM. In data set [2], the Cmax is 5090 ng/mL, the clearance stood at 11.6 mL/min/kg, the half-life is 1.4 h and the Vd turned out to be 0.4 L/kg. Also, in data set [2], the bioavailability worked out at 48.1% and the AUC(0-t) came out at 3.51 µM·h. Besides, in data set [1] (setting [9]), the “TGI (%)” value came out at 81.4% and the “Tumor volume (mm^3) (Day 34)” value was 213 ± 37 mm^3. Moreover, in data set [1] (setting [7]), the “TGI (%)” value was determined as 78.2% and the “Tumor volume (mm^3) (Day 34)” value is listed as 231 ± 28 mm^3.
On to `CN[C@H]1CC[C@H](c2nc(C3(CN[C@@H]4C[C@H]4c4ccccc4)CC3)no2)CC1` [Example 232], for which the IC50 was 50 to 100 nM against human LSD1, > 40000 nM against hERG potassium channel and 500 to 1000 nM in the data set on H1417 cells (setting [5]). The Emax with H1417 cells (setting [6]) lay within 70 to 90%. Also, the “TGI (%)” value in data set [1] (setting [8]) was found to be 51.1%. Further, the “Tumor volume (mm^3) (Day 27)” value in data set [1] (setting [8]) came out at 313 ± 28 mm^3.
As to `N[C@H]1CC[C@H](c2noc(C3(CN[C@@H]4C[C@H]4c4ccccc4)CC3)n2)CC1` [Example 242], the IC50 at human LSD1 was ≤ 50 nM. Also, in data set [2], the Cmax was 179 ng/mL, the clearance is 72.1 mL/min/kg, the half-life is 2 h and the Vd is 10.3 L/kg. In data set [2], the bioavailability stood at 57.5% and the AUC(0-t) was found to be 0.712 µM·h. The IC50 with H1417 cells (setting [5]) is ≤ 100 nM. In the data set on H1417 cells (setting [6]), the Emax lay within 90 to 100%.
